Assay results: patent publication US20250188044A1 (HARBIN MEDISAN PHARMACEUTICAL CO., LTD., priority 2021, published 2025)
Entries after “also recorded” stand apart in the source; their conditions may differ.

Columns and labels:
[1] = test system: nonalcoholic steatohepatitis (NASH); details: NCT02704403; cited from earlier work
[2] = Metabolic stability in human liver microsomes; type: in vitro ADME
Method: A 500 μM solution of the compound in acetonitrile was prepared and diluted to obtain a 1.5 μM drug working solution with a 0.1 M potassium phosphate solution. The drug working solution was co-incubated with a human liver microsome working solution at a final concentration of 0.75 mg/mL and an NADPH solution (final concentration: 550 μM), and the incubation was terminated by adding an acetonitrile solution at 0 min, 15 min, 30 min, 45 min, and 60 min. The residual amount of the compound that remained in the system at each time point was detected by using LC/MS. The absolute value k of the slope was determined by plotting the natural logarithm of the percentage of the residual amount of the compound with the time, and the calculation was performed according to the formula: T1/2 (half-life)=ln2/k=0.693/k.

[3] = Pharmacokinetic evaluation in rats; type: in vivo, SD rats
Method: Animals: 6 male SD rats, SPF grade, sourced from the animal repository of Shanghai Medicilon research institution.
The dose in the oral administration group was 10 mpk, and the dose in the intravenous injection group was 2 mpk.
All samples were centrifuged at 18,000 g for 7 min in a low-temperature centrifuge, and plasma was isolated. The content of the compound in the plasma was determined by LC-MS/MS-18, and relevant pharmacokinetic parameters were calculated from the plasma concentration data at different time points.

HepG2 cells = assay: Lipid metabolism-associated gene expression of HepG2 cells (qPCR); type: cell-based, human; details: 8 nM, nM, and 200 nM, 12 h, vs. blank control (FIGS. 1 and 2)
Method: HepG2 cells (human hepatoma cells) were cultured in a 6-well cell culture plate and subjected to adherent culture overnight. […] The old medium was discarded and replaced with drug-containing medium of different concentrations (complete medium without the compound for the blank control group). After dosing, the cells were incubated for 12 h. The medium was discarded and total RNA was extracted by the phenol-chloroform method. After reverse transcription, the real-time quantitative fluorescent PCR experiment (RNA extraction, reverse transcription, quantitative PCR reagents were all purchased from Nanjing Vazyme Biotech Co., Ltd.) was performed using ACTB as an internal reference, and the expression of PDK4, ACADVL, and CPT1A, which are important genes in oxidative metabolism of lipids, was detected according to the steps in the product instructions (the primer sequences are shown in Table 7). […] Some other compounds of the present invention also have similar activity.

NASH model mice = assay: CDAA-induced NASH mouse model; type: in vivo, C57 mice
[4] = test system: liver fibrosis model mice; assay: Carbon tetrachloride-induced liver fibrosis mouse model; type: in vivo, C57 mice
Method: Animals: 60 male C57 mice, SPF grade, 8 weeks old, weighing about 20 g, purchased from Beijing Vital River Laboratory Animal Technology Co., Ltd. All animals were kept on a 12-h alternating circadian rhythm and were fed ad libitum.
Reagent: positive drug IVA337 (Pan-PPAR agonist, currently in an anti-NASH phase II clinical trial), which was prepared according to the method in the literature (J. Med. Chem., 2018, 61, 2246); carbon tetrachloride (purchased from Shanghai Aladdin Biochemical Technology Co., Ltd.), and sunflower seed oil (purchased from Shanghai Yuanye Biotech Co., Ltd.).
. Mice were given food and water normally and subjected to modeling for 3 weeks. The model group and the administration groups were each injected twice a week with a 25% CCl4 oil solution at a dose of 2 mL/kg, and the control group was injected with an oil solvent at the same volume.
. The administration was performed for 3 weeks, and the mice were given food and water normally. The mice in each group were weighed daily, and their body weight, hair, feces, and activity were carefully observed and recorded.
At 30 h after the sixth injection of CCl4, the mice were dissected for the samples. Blood was taken from the orbit, and then the liver was taken after the mice were sacrificed. The right lobular tissue of liver was fixed with 4% paraformaldehyde and used for HE staining of sections.
The pretreated tissues were sent to ServiceBio Biotechnology Co., Ltd. to make HE stained sections and Sirius red stained sections.
The liver tissue stored at −80° C. was taken out and placed in liquid nitrogen, about 10 mg of liver tissue was rapidly cut off, homogenized with a homogenizer after about 500 μL of precooled tissue lysis buffer was added, and then lysed on ice for 30 min. The lysate was centrifuged at 12,000 rpm for 15 min at 4° C., and 170 μL of supernatant was added to a clean EP tube, from which 10 μL of supernatant was taken for BCA protein quantification. 40 μL of 5*loading buffer was added to the rest of protein supernatant for boiling for denaturation, followed by SDS-PAGE electrophoresis, and the protein was transferred onto a PVDF membrane for incubation and elution of related antibodies. Finally, imaging analysis was performed by using a chemiluminescence apparatus.
The liver tissue stored at −80° C. was taken out and placed in liquid nitrogen, about 200 mg of the liver tissue was rapidly cut off, and hydroxyproline in the liver tissue was detected according to the method in the product instructions (Beijing Solarbio Science & Technology Co., Ltd., BC0255).

[5] = test system: nuclear receptors other than PPAR (RARα, RARγ, RARβ, FXR, RXRα, RXRγ, RXRβ, VDR, LXRα, LXRβ, THβ, PXR, CAR); assay: Nuclear receptor selectivity, Gal4-LBD reporter gene assays in Cos-7 cells; type: cell-based, human; details: 1 μM, relative agonistic rate (FIG. 16)
[6] = test system: PPARα/δ downstream target gene; details: mice, 10 mg/kg intragastric, four consecutive days (FIG. 15)

CSc1ccc(C(=O)/C=C/c2cc(C)c(OC(C)(C)C(=O)O)c(C)c2)cc1 [GFT505, Elafibranor]
efficacy in anti-NASH phase III clinical trial, interim analysis [1]: substantially ineffective

Cc1cc(Cn2ncn(-c3ccc(OC(F)(F)F)cc3)c2=O)cc(C)c1OC(C)(C)C(=O)O [Compound 61, 2-(2,6-Dimethyl-4-((5-oxo-4-(4-(trifluoromethoxy)phenyl)-4,5-dihydro-1H-1,2,4-triazo 1-1-yl)methyl)phenoxy)-2-methylpropionic acid]
metabolic stability in human liver microsomes (in words) ([2]; human liver microsomes): very good metabolic stability in human liver microsomes
half-life ([2]; human liver microsomes 0.75 mg/mL, NADPH, 0-60 min): > 2 h
Time-to-peak Tmax ([3]; intravenous injection, 2 mpk): 0.08 ± 0.00 h
Bioavailability F ([3]; oral administration, 10 mpk): 86.35%
Time-to-peak Tmax ([3]; oral administration, 10 mpk): 1.42 ± 1.01 h
expression of PDK4, ACADVL, and CPT1A (HepG2 cells): improve the expression of PDK4, ACADVL, and CPT1A in a dose-dependent manner with significance
anti-NASH efficacy compared with GFT505 and IVA337 at the same dose (NASH model mice; NASH model mice, 10 mg/kg intragastric daily, 6 weeks, 10 mg/kg): stronger liver enzyme-lowering effect than GFT505 and IVA337 at the same dose; also recorded: stronger effect in resisting liver inflammation than GFT505 and IVA337; also recorded: stronger effect in resisting liver fibrosis than GFT505 and IVA337; also recorded: better effect than GFT505 and IVA337 at the same dose; also recorded: better efficacy than positive control drugs GFT505 and IVA337 at the same dose; also recorded: better anti-NASH efficacy than clinically investigational PPAR agonists GFT505 and IVA337 at the same dose
liver mRNA expression levels of Tnf, IIIb, Ccl4, and Adgre1 (NASH model mice; NASH model mice, 3, 10, 30 mg/kg intragastric daily, 6 weeks (FIG. 6)): inhibit the increase of mRNA expression levels of Tnf, IIIb, Ccl4, and Adgre1 due to modeling in a dose-dependent manner
liver mRNA expression levels of Acta2, Tgfb1, Collal, and Col3a1 (NASH model mice; NASH model mice, 3, 10, 30 mg/kg intragastric daily, 6 weeks (FIG. 7)): significantly inhibit the increase of mRNA expression levels of Acta2, Tgfb1, Collal, and Col3a1 due to modeling
levels of ALT and AST in serum (NASH model mice; NASH model mice, 3, 10, 30 mg/kg intragastric daily, 6 weeks (FIGS. 4 and 5)): down-regulate the levels of ALT and AST in serum of NASH model mice in a dose-dependent manner
HE staining: infiltration of inflammatory cells in the portal area (NASH model mice; NASH model mice, liver sections (FIG. 8)): reduce the infiltration of inflammatory cells in the portal area due to modeling in a dose-dependent manner
Sirius red staining: collagen deposition (NASH model mice; NASH model mice, liver sections (FIG. 9)): reduce collagen deposition due to modeling in a dose-dependent manner
Oil red staining: lipid accumulation (NASH model mice; NASH model mice, liver sections (FIG. 10)): reduce lipid accumulation due to modeling in a dose-dependent manner
anti-liver fibrosis efficacy compared with IVA337 at the same dose ([4]; CCl4 liver fibrosis model mice, 10 mg/kg intragastric daily, 3 weeks, 10 mg/kg): stronger effect than IVA337 at the same dose; also recorded: better effect than IVA337 at the same dose; also recorded: better efficacy than a positive control drug IVA337 at the same dose
hepatic hydroxyproline level ([4]; CCl4 liver fibrosis model mice, 3, 10, 30 mg/kg intragastric daily, 3 weeks (FIG. 11)): down-regulate the hepatic hydroxyproline level of liver fibrosis model mice in a dose-dependent manner
αSMA and Collal protein levels in liver ([4]; CCl4 liver fibrosis model mice, Western blot (FIG. 12)): inhibit the increase of αSMA and Collal protein levels due to modeling in a dose-dependent manner
HE staining: infiltration of inflammatory cells in the portal area ([4]; CCl4 liver fibrosis model mice, liver sections (FIG. 13)): reduce the infiltration of inflammatory cells in the portal area due to modeling in a dose-dependent manner
Sirius red staining: collagen deposition ([4]; CCl4 liver fibrosis model mice, liver sections (FIG. 14)): reduce collagen deposition due to modeling in a dose-dependent manner
agonistic effect on nuclear receptors other than PPAR [5]: no significant agonistic effect on nuclear receptors other than PPAR
target genes significantly upregulated in the skeletal muscle [6]: 16
